According to US9540357B1, “15-aryl prostaglandins as EP4 agonists, and methods of use thereof” (Allergan, Inc., priority 2014, dated 2017):
“And” between values parts separate entries of the source, which are not always exact repeats. Equal values may be shown once.

Columns and labels:
EP4 [1] = molecular target: T1, EP4 (Homo sapiens (Human), UniProt P35408); test: Competition binding, EP4
EP2 = EP2 (Homo sapiens (Human), UniProt P43116); test: Competition binding ([3H]PGE2), EP2; conditions: HEK 293 cells stably expressing human EP2 receptors, [3H]PGE2 10 nM
EP2, sequence (P43116 whole entry): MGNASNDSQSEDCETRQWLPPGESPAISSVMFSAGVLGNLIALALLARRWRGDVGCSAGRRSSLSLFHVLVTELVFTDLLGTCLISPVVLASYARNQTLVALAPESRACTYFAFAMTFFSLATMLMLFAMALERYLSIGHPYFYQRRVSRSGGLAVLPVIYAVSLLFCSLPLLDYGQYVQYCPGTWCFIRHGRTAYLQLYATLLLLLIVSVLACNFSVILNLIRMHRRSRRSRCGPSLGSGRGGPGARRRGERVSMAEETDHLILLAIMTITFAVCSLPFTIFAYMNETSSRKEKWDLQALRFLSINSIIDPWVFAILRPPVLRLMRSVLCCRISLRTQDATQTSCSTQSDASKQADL
Method: Competition binding experiments were performed in a medium containing Hank's balanced salt solution, HEPES 20 mM, pH 7.3, membranes (˜60 μg protein) or 2×10^5 cells from HEK 293 cells stably expressing human EP2 receptors, [^3H]PGE2 (10 nM) and various concentrations of test compounds in a total volume of 300 μl. Reaction mixtures were incubated at 23° C. for 60 min, and were filtered over Whatman GF/B filters under vacuum. Filters were washed three times with 5 ml ice-cold buffer containing 50 mM Tris/HCl (pH 7.3). Non-specific binding was estimated in the presence of excess unlabeled PGE2 (10 μM). Binding data fitted to the binding model for a single class of binding sites, using nonlinear regression analysis. IC50 values thus obtained were converted to Ki using the equation of Ki=(IC50/(1+[L]/KD) where [L] represents PGE2 concentration (10 nM) and KD the dissociation constant for [^3H]PGE2 at human EP2 receptors (40 nM).

EP4 [2] = molecular target: T1, EP4; test: cAMP assay, EP4; assay type: cell-based; conditions: HEK-EBNA cells expressing EP4
Method: A 384-well drug plate was prepared to contain 6 test compounds, PGE2 and cAMP in 16 serial dilutions in triplicate, using a Biomek station. HEK-EBNA cells expressing a target PG receptor subtype (EP2 or EP4) were suspended in a stimulation buffer (HBSS, 0.1% BSA, 0.5 mM IBMX and 5 mM HEPES, pH 7.4) in a density of 10^4 cells/5 microliters. The reaction was initiated by mixing 5 microliters drug dilutions with 5 microliters of HEK-EBNA cells in a well, carried out for 30 min at room temperature, and followed by the addition of 5 microliters anti-cAMP acceptor beads in the control buffer with Tween-20 (25 mM NaCl, 0.03% Tween-20, 5 mM HEPES, pH 7.4). After 30 min in the dark at room temperature, the mixtures were incubated with 15 microliters biotinylated-cAMP/streptavidin donor beads in Lysis/Detection buffer (0.1% BSA, 0.3% Tween-20 and 5 mM HEPES, pH 7.4) for 45 min at room temperature. Fluorescence changes were read using a Fusion-alpha microplate reader.

T1 sequence (P35408 whole entry): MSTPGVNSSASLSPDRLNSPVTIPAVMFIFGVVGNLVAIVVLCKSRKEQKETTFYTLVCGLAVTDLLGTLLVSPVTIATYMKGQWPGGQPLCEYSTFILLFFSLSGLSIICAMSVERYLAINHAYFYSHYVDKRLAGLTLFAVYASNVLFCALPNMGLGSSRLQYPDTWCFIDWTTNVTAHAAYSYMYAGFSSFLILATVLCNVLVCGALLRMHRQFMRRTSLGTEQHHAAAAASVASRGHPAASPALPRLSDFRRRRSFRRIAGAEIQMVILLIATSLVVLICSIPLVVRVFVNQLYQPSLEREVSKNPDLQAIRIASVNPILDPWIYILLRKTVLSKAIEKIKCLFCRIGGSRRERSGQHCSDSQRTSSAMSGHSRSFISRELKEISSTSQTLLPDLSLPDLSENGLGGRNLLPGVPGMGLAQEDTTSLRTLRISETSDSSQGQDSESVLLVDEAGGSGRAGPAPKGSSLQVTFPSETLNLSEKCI

SMILES	Ki (EP4 [1])	EP2 Ki (EP2)	EP4 cAMP EC50 (EP4 [2])	EC50 (EP4 [2])	Ki (EP2)	EP4 Ki (EP4 [1])
O=C(O)c1ccc(CCCN2C(=O)CC[C@@H]2/C=C/C(O)c2cccc(Br)c2)cc1 (single isomer, unassigned) [Example 1]	2040 nM	> 10000 nM	> 10000 nM			
O=C(O)c1ccc(CCCN2C(=O)CC[C@@H]2/C=C/C(O)c2ccccc2)cc1 (single isomer, unassigned) [Example 3]		> 10000 nM		9210 nM		> 10000 nM
O=C(O)c1ccc(CCCN2C(=O)CC[C@@H]2/C=C/C(O)c2ccccc2)cc1 (single isomer, unassigned) [Example 4]	4970 nM	> 10000 nM		5540 nM		
O=C(O)c1ccc(CCCN2C(=O)CC[C@@H]2/C=C/C(O)c2cccc(-c3ccccc3)c2)cc1 (single isomer, unassigned) [Example 5]	8560 nM	> 10000 nM				
O=C(O)c1ccc(CCCN2C(=O)CC[C@@H]2/C=C/C(O)c2cccc(-c3ccccc3)c2)cc1 (single isomer, unassigned) [Example 6]	6710 nM	> 10000 nM	> 10000 nM			
Cc1ccccc1-c1cccc(C(O)/C=C/[C@H]2CCC(=O)N2CCCc2ccc(C(=O)O)cc2)c1 (single isomer, unassigned) [Example 7]	1150 nM	> 10000 nM		14 nM		
Cc1ccccc1-c1cccc(C(O)/C=C/[C@H]2CCC(=O)N2CCCc2ccc(C(=O)O)cc2)c1 (single isomer, unassigned) [Example 8]	159 nM	> 10000 nM		2 nM		
CCc1cc(Cl)ccc1-c1cccc(C(O)/C=C/[C@H]2CCC(=O)N2CCCc2ccc(C(=O)O)cc2)c1 (single isomer, unassigned) [Example 14]	216 nM	> 10000 nM		33 nM		
Cc1cc(F)ccc1-c1cccc(C(O)/C=C/[C@H]2CCC(=O)N2CCCc2ccc(C(=O)O)cc2)c1 (stereo partly drawn) [Example 11, 4-(3-{2(R)-[(1E)-3-(4′-fluoro-2′-methylbiphenyl-3-yl)-3-hydroxyprop-1-en-1-yl]-5-oxopyrrolidin-1-yl}propyl)benzoic acid]	> 1340 nM	> 10000 nM				
Cc1cc(F)ccc1-c1cccc(C(O)/C=C/[C@H]2CCC(=O)N2CCCc2ccc(C(=O)O)cc2)c1 (stereo partly drawn) [Example 12, 4-(3-{2(R)-[(1E)-3-(4′-fluoro-2′-methylbiphenyl-3-yl)-3-hydroxyprop-1-en-1-yl]-5-oxopyrrolidin-1-yl}propyl)benzoic acid]	53 nM	> 10000 nM		8 nM		
Cc1cc(Cl)ccc1-c1cccc(C(O)/C=C/[C@H]2CCC(=O)N2CCCc2ccc(C(=O)O)cc2)c1 (stereo partly drawn) [Example 13, 4-(3-{2(R)-[(1E)-3-(4′-chloro-2′-methylbiphenyl-3-yl)-3-hydroxyprop-1-en-1-yl]-5-oxopyrrolidin-1-yl}propyl)benzoic acid]	23 nM			4 nM	4320 nM	
O=C(O)c1ccc(CCCN2C(=O)CC[C@@H]2/C=C/C(O)c2cccc(-c3ccc(Cl)cc3CO)c2)cc1 (stereo partly drawn) [Example 18, 4-[3-(2(R)-{(1E)-3-[4′-chloro-2′-(hydroxymethyl)biphenyl-3-yl]-3-hydroxyprop-1-en-1-yl}-5-oxopyrrolidin-1-yl)propyl]benzoic acid]		> 10000 nM	> 10000 nM			> 10000 nM
O=C(O)c1ccc(CCCN2C(=O)CC[C@@H]2/C=C/C(O)c2cccc(-c3ccc(Cl)cc3CO)c2)cc1 (stereo partly drawn) [Example 19, 4-[3-(2(R)-{(1E)-3-[4′-chloro-2′-(hydroxymethyl)biphenyl-3-yl]-3-hydroxyprop-1-en-1-yl}-5-oxopyrrolidin-1-yl)propyl]benzoic acid]	658 nM	> 10000 nM		95 nM and 165 nM		

Second part, led by results:

Ki (EP4 [1])	EP2 Ki (EP2)	EP4 cAMP EC50 (EP4 [2])	EC50 (EP4 [2])	Ki (EP2)	SMILES	EP4 Ki (EP4 [1])
6 nM	> 10000 nM		3 nM		CCc1cc(Cl)ccc1-c1cccc(C(O)/C=C/[C@H]2CCC(=O)N2CCCc2ccc(C(=O)O)cc2)c1 (single isomer, unassigned) [Example 15]	
332 nM	> 10000 nM		87 nM		O=C(O)c1ccc(CCCN2C(=O)CC[C@@H]2/C=C/C(O)c2cccc(-c3ccc(Cl)cc3C(F)(F)F)c2)cc1 (single isomer, unassigned) [Example 16]	
11 nM	> 10000 nM		3 nM		O=C(O)c1ccc(CCCN2C(=O)CC[C@@H]2/C=C/C(O)c2cccc(-c3ccc(Cl)cc3C(F)(F)F)c2)cc1 (single isomer, unassigned) [Example 17]	
955 nM	> 10000 nM		138 nM		Cc1cc(Cl)cc(C)c1-c1cccc(C(O)/C=C/[C@H]2CCC(=O)N2CCCc2ccc(C(=O)O)cc2)c1 (single isomer, unassigned) [Example 20]	
60 nM	> 10000 nM		2 nM		Cc1cc(Cl)cc(C)c1-c1cccc(C(O)/C=C/[C@H]2CCC(=O)N2CCCc2ccc(C(=O)O)cc2)c1 (single isomer, unassigned) [Example 21]	
2340 nM	> 10000 nM		35 nM		Cc1c(-c2cccc(C(O)/C=C/[C@H]3CCC(=O)N3CCCc3ccc(C(=O)O)cc3)c2)ccc(Cl)c1Cl (single isomer, unassigned) [Example 22]	
140 nM	> 10000 nM		3 nM		Cc1c(-c2cccc(C(O)/C=C/[C@H]3CCC(=O)N3CCCc3ccc(C(=O)O)cc3)c2)ccc(Cl)c1Cl (single isomer, unassigned) [Example 23]	
1310 nM	> 10000 nM		2340 nM		CCCc1cc(Cl)ccc1-c1cccc(C(O)/C=C/[C@H]2CCC(=O)N2CCCc2ccc(C(=O)O)cc2)c1 (single isomer, unassigned) [Example 24]	
130 nM	> 10000 nM		63 nM		CCCc1cc(Cl)ccc1-c1cccc(C(O)/C=C/[C@H]2CCC(=O)N2CCCc2ccc(C(=O)O)cc2)c1 (single isomer, unassigned) [Example 25]	
4340 nM	> 10000 nM		1740 nM		Cc1cc(Cl)ccc1-c1cc(F)cc(C(O)/C=C/[C@H]2CCC(=O)N2CCCc2ccc(C(=O)O)cc2)c1 (single isomer, unassigned) [Example 34]	
352 nM	> 10000 nM		59 nM and 99 nM		Cc1cc(Cl)ccc1-c1cc(F)cc(C(O)/C=C/[C@H]2CCC(=O)N2CCCc2ccc(C(=O)O)cc2)c1 (single isomer, unassigned) [Example 35]	
4480 nM	> 10000 nM		1030 nM		Cc1cc(Cl)ccc1-c1cc(C(O)/C=C/[C@H]2CCC(=O)N2CCCc2ccc(C(=O)O)cc2)ccc1F (single isomer, unassigned) [Example 36]	
			123 nM and 211 nM		Cc1cc(Cl)ccc1-c1cc(C(O)/C=C/[C@H]2CCC(=O)N2CCCc2ccc(C(=O)O)cc2)ccc1F (single isomer, unassigned) [Example 37]	
8850 nM	> 10000 nM	> 10000 nM			CC(C)(C)c1cc(Cl)ccc1-c1cccc(C(O)/C=C/[C@H]2CCC(=O)N2CCCc2ccc(C(=O)O)cc2)c1 (stereo partly drawn) [Example 26, 4-(3-{2(R)-[(1E)-3-(2′-tert-butyl-4′-chlorobiphenyl-3-yl)-3-hydroxyprop-1-en-1-yl]-5-oxopyrrolidin-1-yl}propyl)benzoic acid]	
757 nM	> 10000 nM		107 nM		CC(C)(C)c1cc(Cl)ccc1-c1cccc(C(O)/C=C/[C@H]2CCC(=O)N2CCCc2ccc(C(=O)O)cc2)c1 (stereo partly drawn) [Example 27, 4-(3-{2(R)-[(1E)-3-(2′-tert-butyl-4′-chlorobiphenyl-3-yl)-3-hydroxyprop-1-en-1-yl]-5-oxopyrrolidin-1-yl}propyl)benzoic acid]	
5160 nM	> 10000 nM				CCCCc1cc(Cl)ccc1-c1cccc(C(O)/C=C/[C@H]2CCC(=O)N2CCCc2ccc(C(=O)O)cc2)c1 (stereo partly drawn) [Example 28, 4-(3-{2(R)-[(1E)-3-(2′-butyl-4′-chlorobiphenyl-3-yl)-3-hydroxyprop-1-en-1-yl]-5-oxopyrrolidin-1-yl}propyl)benzoic acid]	
319 nM	> 10000 nM		117 nM		CCCCc1cc(Cl)ccc1-c1cccc(C(O)/C=C/[C@H]2CCC(=O)N2CCCc2ccc(C(=O)O)cc2)c1 (stereo partly drawn) [Example 29, 4-(3-{2(R)-[(1E)-3-(2′-butyl-4′-chlorobiphenyl-3-yl)-3-hydroxyprop-1-en-1-yl]-5-oxopyrrolidin-1-yl}propyl)benzoic acid]	
4830 nM	> 10000 nM				Cc1cc(Cl)ccc1-c1ccc(C(O)/C=C/[C@H]2CCC(=O)N2CCCc2ccc(C(=O)O)cc2)s1 (stereo partly drawn) [Example 32, 4-[3-(2(R)-{(1E)-3-[5-(4-chloro-2-methylphenyl)thiophen-2-yl]-3-hydroxyprop-1-en-1-yl}-5-oxopyrrolidin-1-yl)propyl]benzoic acid]	
